From publication PMC12472391, “Borylated Five-Membered Ring Iminosugars: Synthesis, Spectroscopic Analysis, and Biological Evaluation for Glycosidase Inhibition and Anticancer Properties for Application in Boron Neutron Capture Therapy (BNCT)—Part 1” (Pharmaceuticals, 2025)

Legend:
Assay in all cases: Glycosidase inhibition, Table 6 (Laboratory 1)
Type in all cases: biochemical
[1] = molecular target: T1, α-D-glucosidase (from yeast) (Saccharomyces cerevisiae, UniProt P53341)
T1 construct: purchased Sigma-Aldrich Co
Description: (§1) The enzymes α-D-glucosidase (from yeast), β-D-glucosidases (from almond and bovine liver), α-D-galactosidase (from coffee beans), β-D-galactosidase (from bovine liver), α-D-mannosidase (from Jack bean), β-D-mannosidase (from snail), α-L-rhamnosidase (from Penicillium decumbens), α-L-fucosidase (from bovine kidney), trehalase (from porcine kidney), β-D-glucuronidases (from E. coli and bovine liver), amyloglucosidase (from A. niger), para-nitrophenyl glycosides, and various disaccharides were purchased from Sigma-Aldrich Co. (St. Louis, MO, USA).
(§2) Brush border membranes were prepared from the rat small intestine according to the method of Kessler et al., and were assayed at pH 6.8 for rat intestinal maltase using maltose. For rat intestinal maltase, porcine kidney trehalase, and A. niger amyloglucosidase activities, the reaction mixture contained maltose (25 mM) and the appropriate amount of enzyme, and the incubations were performed for 10–30 min at 37 °C. The reaction was stopped by heating at 100 °C for 3 min. After centrifugation (600× g; 10 min), the resulting reaction mixture was added to the Glucose CII-test Wako (Wako Pure Chemical Ind., Osaka, Japan). The absorbance at 505 nm was measured to determine the amount of the released D-glucose. Other glycosidase activities were determined using an appropriate para-nitrophenyl glycoside as substrate at the optimum pH of each enzyme. The reaction mixture contained the substrate (2 mM) and the appropriate amount of enzyme. The reaction was stopped by the addition of Na2CO3 (400 mM). The released para-nitrophenol was measured spectrometrically at 400 nm. All reactions run in methanol.

[2] = system: α-D-glucosidase (rat intestinal maltase)
Description: as §1, §2

[3] = system: α-L-rhamnosidase (from Penicillium decumbens)
Description: as §1, §2

β-D-glucosidase (almond) = system: β-D-glucosidase (almond)
Description: as §1, §2

[4] = system: β-D-glucosidase (bovine liver)
Description: as §1, §2

[5] = system: β-D-glucuronidase (bovine liver)
Description: as §1, §2

[6] = system: β-D-mannosidase (from snail)
Description: as §1, §2

[7] = molecular target: T2, amyloglucosidase (from A. niger) (Aspergillus niger, UniProt P69328)
T2 construct: purchased Sigma-Aldrich Co
Description: as §1, §2

[8] = molecular target: T3, α,α-trehalase (porcine kidney) (Sus scrofa, UniProt I3LIR5)
T3 construct: purchased Sigma-Aldrich Co
T3 sequence (I3LIR5 24-583): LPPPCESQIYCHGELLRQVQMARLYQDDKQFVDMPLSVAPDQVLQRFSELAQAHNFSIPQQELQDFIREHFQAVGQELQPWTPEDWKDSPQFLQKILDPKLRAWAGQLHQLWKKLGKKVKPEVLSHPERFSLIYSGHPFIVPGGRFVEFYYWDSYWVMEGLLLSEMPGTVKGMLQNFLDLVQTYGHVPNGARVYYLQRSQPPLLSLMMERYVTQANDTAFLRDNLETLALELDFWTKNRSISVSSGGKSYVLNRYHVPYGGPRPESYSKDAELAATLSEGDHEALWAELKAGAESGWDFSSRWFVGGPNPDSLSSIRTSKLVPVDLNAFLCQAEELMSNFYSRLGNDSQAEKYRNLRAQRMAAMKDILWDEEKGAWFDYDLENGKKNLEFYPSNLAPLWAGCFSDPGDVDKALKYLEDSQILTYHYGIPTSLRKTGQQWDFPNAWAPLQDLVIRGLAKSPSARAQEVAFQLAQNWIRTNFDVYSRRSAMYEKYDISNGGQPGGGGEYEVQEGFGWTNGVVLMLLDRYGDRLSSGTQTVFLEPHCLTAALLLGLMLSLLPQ
Description: as §1, §2

[9] = molecular target: T4, α-D-galactosidase (from coffee beans) (Coffea arabica, UniProt Q42656)
T4 construct: purchased Sigma-Aldrich Co
Description: as §1, §2

[10] = molecular target: T5, α-D-mannosidase (from Jack bean) (Canavalia ensiformis, UniProt C0HJB3)
T5 construct: purchased Sigma-Aldrich Co
T5 sequence (C0HJB3 1-981): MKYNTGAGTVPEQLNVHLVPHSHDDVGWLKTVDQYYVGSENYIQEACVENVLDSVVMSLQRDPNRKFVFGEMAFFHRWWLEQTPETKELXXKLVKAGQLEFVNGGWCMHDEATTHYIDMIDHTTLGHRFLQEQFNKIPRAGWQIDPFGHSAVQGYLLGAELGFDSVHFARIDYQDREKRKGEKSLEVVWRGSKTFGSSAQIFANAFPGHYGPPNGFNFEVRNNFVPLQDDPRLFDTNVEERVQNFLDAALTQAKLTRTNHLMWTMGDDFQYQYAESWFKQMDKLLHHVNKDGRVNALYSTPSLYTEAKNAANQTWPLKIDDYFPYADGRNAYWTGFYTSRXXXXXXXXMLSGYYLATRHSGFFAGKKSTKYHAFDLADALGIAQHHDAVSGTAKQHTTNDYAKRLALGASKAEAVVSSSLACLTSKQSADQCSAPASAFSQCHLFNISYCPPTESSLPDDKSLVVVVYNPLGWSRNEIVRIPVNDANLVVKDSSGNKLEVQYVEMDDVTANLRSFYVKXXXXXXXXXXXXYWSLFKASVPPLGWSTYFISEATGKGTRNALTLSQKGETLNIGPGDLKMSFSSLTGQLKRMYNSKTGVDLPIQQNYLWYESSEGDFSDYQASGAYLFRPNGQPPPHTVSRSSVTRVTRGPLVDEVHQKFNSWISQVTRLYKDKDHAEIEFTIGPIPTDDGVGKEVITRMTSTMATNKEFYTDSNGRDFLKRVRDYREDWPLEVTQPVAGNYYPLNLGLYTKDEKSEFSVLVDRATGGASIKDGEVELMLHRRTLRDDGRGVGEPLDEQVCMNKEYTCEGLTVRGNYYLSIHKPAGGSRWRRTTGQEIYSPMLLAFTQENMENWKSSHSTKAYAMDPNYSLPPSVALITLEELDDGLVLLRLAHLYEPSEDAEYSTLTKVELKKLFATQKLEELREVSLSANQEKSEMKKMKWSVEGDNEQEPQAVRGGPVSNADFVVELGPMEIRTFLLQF
Description: as §1, §2

[11] = molecular target: T6, β-D-glucuronidase (E. coli) (Escherichia coli, UniProt P05804)
T6 construct: purchased Sigma-Aldrich Co
Description: as §1, §2

T2 sequence (P69328 25-640): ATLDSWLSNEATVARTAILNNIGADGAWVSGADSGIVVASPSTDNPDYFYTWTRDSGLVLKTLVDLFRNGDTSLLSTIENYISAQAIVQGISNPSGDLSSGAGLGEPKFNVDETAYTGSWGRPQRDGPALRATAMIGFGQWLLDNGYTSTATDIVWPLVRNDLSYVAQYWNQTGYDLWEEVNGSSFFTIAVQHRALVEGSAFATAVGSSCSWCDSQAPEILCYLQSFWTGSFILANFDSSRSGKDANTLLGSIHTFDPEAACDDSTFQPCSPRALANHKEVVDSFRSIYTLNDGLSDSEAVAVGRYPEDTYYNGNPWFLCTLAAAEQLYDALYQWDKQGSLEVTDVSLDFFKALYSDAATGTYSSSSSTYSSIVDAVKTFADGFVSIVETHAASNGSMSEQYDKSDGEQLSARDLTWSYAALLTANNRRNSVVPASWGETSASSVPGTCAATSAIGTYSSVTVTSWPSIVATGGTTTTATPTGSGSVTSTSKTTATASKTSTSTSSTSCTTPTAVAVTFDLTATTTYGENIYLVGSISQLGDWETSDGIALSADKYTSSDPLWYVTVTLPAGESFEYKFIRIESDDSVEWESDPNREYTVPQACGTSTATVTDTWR
T4 sequence (Q42656 16-378): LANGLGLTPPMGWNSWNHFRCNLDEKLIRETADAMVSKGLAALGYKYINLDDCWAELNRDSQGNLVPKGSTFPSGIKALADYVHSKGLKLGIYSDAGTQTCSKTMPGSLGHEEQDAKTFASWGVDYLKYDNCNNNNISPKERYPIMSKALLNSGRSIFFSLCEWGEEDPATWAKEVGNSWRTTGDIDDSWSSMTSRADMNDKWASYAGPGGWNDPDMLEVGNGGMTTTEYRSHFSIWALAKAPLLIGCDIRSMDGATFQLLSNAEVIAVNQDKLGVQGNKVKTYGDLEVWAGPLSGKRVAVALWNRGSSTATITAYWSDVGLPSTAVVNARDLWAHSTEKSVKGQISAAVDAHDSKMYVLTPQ
T1 sequence (P53341 whole entry): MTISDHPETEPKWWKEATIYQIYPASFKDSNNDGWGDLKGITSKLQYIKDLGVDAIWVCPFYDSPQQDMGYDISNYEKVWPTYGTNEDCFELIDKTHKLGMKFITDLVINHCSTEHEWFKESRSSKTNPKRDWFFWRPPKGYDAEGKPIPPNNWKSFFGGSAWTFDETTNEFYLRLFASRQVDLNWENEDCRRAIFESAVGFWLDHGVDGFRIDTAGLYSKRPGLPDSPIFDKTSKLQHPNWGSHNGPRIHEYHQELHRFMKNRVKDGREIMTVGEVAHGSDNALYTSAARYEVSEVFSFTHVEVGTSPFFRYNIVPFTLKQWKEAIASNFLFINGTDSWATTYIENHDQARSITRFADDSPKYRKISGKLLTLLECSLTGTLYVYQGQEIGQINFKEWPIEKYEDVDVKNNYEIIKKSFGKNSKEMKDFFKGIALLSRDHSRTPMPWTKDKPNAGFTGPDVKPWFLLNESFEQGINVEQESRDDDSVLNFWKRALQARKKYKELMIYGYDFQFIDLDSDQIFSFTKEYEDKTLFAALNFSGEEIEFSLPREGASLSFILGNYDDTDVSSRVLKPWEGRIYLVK
T6 sequence (P05804 whole entry): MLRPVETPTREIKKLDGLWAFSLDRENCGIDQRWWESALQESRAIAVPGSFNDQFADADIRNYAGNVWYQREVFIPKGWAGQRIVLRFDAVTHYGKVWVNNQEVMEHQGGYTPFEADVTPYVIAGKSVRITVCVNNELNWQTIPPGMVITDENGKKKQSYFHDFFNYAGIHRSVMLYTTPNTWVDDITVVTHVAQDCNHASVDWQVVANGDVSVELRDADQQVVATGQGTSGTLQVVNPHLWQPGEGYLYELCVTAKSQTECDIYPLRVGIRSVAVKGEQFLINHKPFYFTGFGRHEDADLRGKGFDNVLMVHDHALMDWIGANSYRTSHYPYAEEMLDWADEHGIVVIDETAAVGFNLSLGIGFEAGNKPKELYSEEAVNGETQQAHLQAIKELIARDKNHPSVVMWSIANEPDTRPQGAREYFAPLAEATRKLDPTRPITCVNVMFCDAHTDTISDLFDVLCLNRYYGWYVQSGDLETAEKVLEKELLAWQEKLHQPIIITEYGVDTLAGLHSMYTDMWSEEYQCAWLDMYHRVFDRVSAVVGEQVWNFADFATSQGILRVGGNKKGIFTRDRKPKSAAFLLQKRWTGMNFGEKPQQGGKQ

Compound | inhibition at 100 µM [1] [%] | α-D-Glucosidase Rat Intestinal Maltase, inhibition % at 100 μM [2] | α-L-Rhamnosidase P. decumbens, inhibition % at 100 μM [3] | β-D-Glucosidase Almond, inhibition % at 100 μM (β-D-glucosidase (almond)) | β-D-Glucosidase Bovine Liver, inhibition % at 100 μM [4] | β-D-Glucuronidase Bovine Liver, inhibition % at 100 μM [5] | β-D-Mannosidase Snail, inhibition % at 100 μM [6] | inhibition at 100 µM [7] [%] | inhibition at 100 µM [8] [%] | inhibition at 100 µM [9] [%] | inhibition at 100 µM [10] [%] | inhibition at 100 µM [11] [%] | also measured
N[C@@H](Cc1ccc(B(O)O)cc1)C(=O)O [BPA, 4-borono-L-phenylalanine, reference compound] | 0 | ^c NI ^d (0%) | ^c NI ^d (0%) | ^c NI ^d (0%) | ^c NI ^d (0%) | ^c NI ^d (7.4%) | ^c NI ^d (2.1%) |  |  |  |  |  | 
CC1(C)O[C@H]2O[C@H]3[C@@H]([C@H]2O1)N(Cc1ccccc1)C[C@H]3O [Compound 3, N-Benzyl-3,6-dideoxy-3,6-imino-1,2-O-isopropylidene-α-D-gulofuranose] | 4.7 | ^c NI ^d (0%) | ^c NI ^d (0.5%) | ^c NI ^d (0%) | ^c NI ^d (31.9%) | ^c NI ^d (0%) | ^c NI ^d (2.7%) | 0 | 0 | 9.5 | 0.9 | 2.4 | 
OC1O[C@@H]2[C@H]([C@H]1O)N(Cc1ccccc1)C[C@H]2O (stereo partly drawn) [Compound 4, N-Benzyl-3,6-dideoxy-3,6-imino-D-gulofuranose] |  |  |  |  |  |  |  |  |  |  |  |  | inhibition at 1000 µM [7]: 0.2%; inhibition at 1000 µM [8]: 0%; inhibition at 1000 µM [9]: 1.8%; inhibition at 1000 µM [1]: 0%; α-D-Glucosidase Rat Intestinal Maltase, inhibition % at 1000 μM [2]: ^a NI ^b (22.4%); inhibition at 1000 µM [10]: 7.5%; α-L-Rhamnosidase P. decumbens, inhibition % at 1000 μM [3]: ^a NI ^b (0%); β-D-Glucosidase Almond, inhibition % at 1000 μM (β-D-glucosidase (almond)): ^a NI ^b (27.4%); β-D-Glucosidase Bovine Liver, inhibition % at 1000 μM [4]: ^a NI ^b (16.4%); inhibition at 1000 µM [11]: 7%; β-D-Glucuronidase Bovine Liver, inhibition % at 1000 μM [5]: ^a NI ^b (7.0%); β-D-Mannosidase Snail, inhibition % at 1000 μM [6]: ^a NI ^b (1.0%)
OC[C@H](O)[C@@H]1[C@H](O)[C@H](O)CN1Cc1ccccc1 [Compound 5, N-Benzyl-1,4-dideoxy-1,4-imino-L-gulitol] | 2.9 | ^c NI ^d (12.9%) | ^c NI ^d (1.5%) | ^c NI ^d (0%) | ^c NI ^d (3.3%) | ^c NI ^d (3.7%) | ^c NI ^d (6.9%) | 2.1 | 0 | 1.5 | 4.4 | 0 | 
N[C@@H](Cc1ccc(B(O)O)cc1)C(=O)O [^10B-BPA, reference compound] |  | ^c NI ^d (0%) | ^c NI ^d (0%) | ^c NI ^d (0%) | ^c NI ^d (14.2%) | ^c NI ^d (0%) | ^c NI ^d (0.3%) |  |  |  |  |  | Amyloglucosidase A. niger, inhibition % at 100 μM ([7]; 100 μM): ^c NI ^d (0%); α,α-Trehalase Porcine Kidney, inhibition % at 100 μM ([8]; 100 μM): ^c NI ^d (0%); α-D-Galactosidase Coffee Beans, inhibition % at 100 μM ([9]; 100 μM): ^c NI ^d (1.2%); α-D-Glucosidase Yeast, inhibition % at 100 μM ([1]; 100 μM): ^c NI ^d (0%); α-D-Mannosidase Jack Bean, inhibition % at 100 μM ([10]; 100 μM): ^c NI ^d (0%); β-D-Glucuronidase E. coli, inhibition % at 100 μM ([11]; 100 μM): ^c NI ^d (2.4%)
CC1(C)O[C@H]2O[C@H]3[C@@H]([C@H]2O1)N(Cc1ccc(B2OC(C)(C)C(C)(C)O2)cc1)C[C@H]3O [para 6, N-(4-Methylphenylboronic acid pinacol ester)-3,6-dideoxy-3,6-imino-1,2-O-isopropylidene-α-D-gulofuranose] | 3.4 | ^c NI ^d (0%) | ^c NI ^d (1.4%) | ^c NI ^d (0%) | ^c NI ^d (13%) | ^c NI ^d (0%) | ^c NI ^d (0%) | 0 | 0 | 1.6 | 0 | 3.2 | 
OB(O)c1ccc(CN2CC(O)C3OC(O)C(O)C32)cc1 [para 7, N-(4-Methylphenylboronic acid)-3,6-dideoxy-3,6-imino-D-gulofuranose] |  |  |  |  |  |  |  |  |  |  |  |  | inhibition at 1000 µM [7]: 2.7%; inhibition at 1000 µM [8]: 0%; inhibition at 1000 µM [9]: 0%; inhibition at 1000 µM [1]: 0%; α-D-Glucosidase Rat Intestinal Maltase, inhibition % at 1000 μM [2]: ^a NI ^b (0%); inhibition at 1000 µM [10]: 0%; α-L-Rhamnosidase P. decumbens, inhibition % at 1000 μM [3]: ^a NI ^b (15.8%); β-D-Glucosidase Almond, inhibition % at 1000 μM (β-D-glucosidase (almond)): ^a NI ^b (43.6%); β-D-Glucosidase Bovine Liver, inhibition % at 1000 μM [4]: ^a NI ^b (38.8%); inhibition at 1000 µM [11]: 17.8%; β-D-Glucuronidase Bovine Liver, inhibition % at 1000 μM [5]: ^a NI ^b (3.5%); β-D-Mannosidase Snail, inhibition % at 1000 μM [6]: ^a NI ^b (4.1%)
